Compound | melting point [°C]
CCOC(=O)c1c(O)nc(SC(C)C)n1C(C)C | 97 to 98
CCN(CC)c1nc(N)c2cc(OC)c(OC)cc2n1 | 167 to 169
CS(=O)(=O)NCCCCn1c(-c2ccccc2)nc2c(N)nc3ccccc3c21 | 234 to 235
Cc1ccc(Cl)c(C)c1NC(=O)N=C1NC(=O)CN1C | 140 to 142
COc1cc(OC)cc(N(C)S(=O)(=O)c2ccc(C)cc2)c1 | 110 to 111
COc1cccc(-c2cc3c4ccccc4ccn3n2)c1 | 109 to 111
NC(=O)C1(Nc2ccccc2)CCN([C@H]2CCc3ccccc32)CC1 | 194 to 195
N#Cc1cc2cc(Br)ccc2nc1Cl | 228 to 230
CC(C)CCNC(=O)c1ccccc1-c1ccccc1CNS(=O)(=O)c1ccccc1 | 127
COC(=O)c1ccc(COC2CC(n3cc(F)c(=O)[nH]c3=O)OC2CO)cc1 (configuration not stated) | 169 to 170
COc1ccccc1CN1CCN(CCN2CCC(O)(c3ccccc3)CC2)C(c2ccccc2)C1 (configuration not stated) | 63 to 65
C=CCC(C#N)(C#N)Cc1ccc(Cl)c(Cl)c1 | 71.8
FC(F)(F)c1ccc2nc(N3CCN(c4ncccc4Cl)CC3)[nH]c2c1 | 208 to 210
CCCCc1oc2ccccc2c1-c1ncc(-c2ccc3cc(OC(Cc4ccccc4)C(=O)O)ccc3c2)o1 (configuration not stated) | 174 to 177
Cc1cc(-c2ccc(Cl)c(OC3SCC(O)C(O)C3O)c2)ccn1 (configuration not stated) | 137
O=Cc1ccc(OCCN2C(=O)c3ccccc3C2=O)cc1 | 138
COc1cc(O)c(C(=O)C=Cc2ccc(C)cc2)c(OC)c1 | 130
N[C@@H](Cc1ccc(F)cc1)[C@H](O)c1ccc(F)cc1 (racemic) | 66 to 67
COc1c(N)ccc2c1C(=CC#N)CC2 | 140 to 142
CCCCCc1c(/C=C/C(=O)OC)sc2cc(OC)ccc12 | 49 to 50
CCOC(=O)/C=C/[C@H]1CC[C@H](c2ccc(C#N)cc2)CC1 | 125

Compound | melting point [°C]
CC(=O)CC(=O)C=Cc1cc(O)ccc1Br | 185 to 188
CCOC(=O)C(=O)Nc1cc(NC(=O)NC)ccc1O | 235 to 236
Cn1nc(N2c3cccc(F)c3CC2C(=O)N2CCCCCC2)ccc1=O (configuration not stated) | 211 to 213
COc1ccc(C2COc3c(ccc(O)c3C)C2)cc1 (configuration not stated) | 140 to 141
COc1cc(C(=O)N2Cc3ccc(C(=O)C(Cl)(Cl)Cl)n3Cc3ccccc32)ccc1-c1ccccc1C | 221 to 222
CNC(=O)Oc1ccc(NS(C)(=O)=O)c(C)c1 | 167 to 169
COC(=O)c1ccc(NC(=O)OCc2ccccc2)c(Cl)c1 | 108
CP(C)(=O)C(O)C(=O)O (configuration not stated) | 206 to 208
Nc1cc(=O)n(Cc2cc(Cl)cc(Cl)c2)[nH]1 | 175 to 176
O=c1oc2ccccc2c(O)c1[C@@H]1C[C@@H](c2ccc(OCc3ccc(C(F)(F)F)cc3)cc2)Cc2ccccc21 (relative stereo) | 153 to 155
N#Cc1cnn(-c2nc(F)c(C(F)(F)F)cc2Cl)c1N | 156 to 159
COc1ccc(-c2[nH]nc3c2C(=O)c2c(NC(=O)NN4CCOCC4)cccc2-3)cc1 | 290 to 291
CCCOc1cc2c(cc1/C=C/c1ccc(C(=O)OCC)cc1)C(C)(C)CCC2(C)C | 97 to 100
CC(Cn1ncnn1)n1nnc2cc3c(=O)n(C(C)Cn4ncnn4)nnc3cc2c1=O (configuration not stated) | 64 to 66
Nc1nc2ccnc(-c3cccc(C=O)c3)n2n1 | 205 to 208
CN(C)S(=O)(=O)c1ccc2c(c1)CC(N1CCN(CCN3CCOC3=O)CC1)c1ccccc1S2 (configuration not stated) | 164 to 165
O=C1C(=CO)c2ccccc2N1c1cccc(Cl)c1 | 175 to 178
CC(C)(CC(O)(Cn1cc(Cl)c(=O)c2sccc21)C(F)(F)F)c1cc(-c2cncnc2)cc2c1OCC2 (configuration not stated) | 218 to 219
O=C(Nc1ccc(OCCCN2CCNCC2)c2ccccc12)c1cc(F)cc(N2CCCCC2)c1 | 70 to 72
O=[N+]([O-])c1ccccc1CSc1nnnn1-c1ccccc1 | 158 to 161

Other lines, results leading:

melting point [°C] | Compound
115 to 116 | CC(=O)Oc1ccc(-c2ccc(C=C(Br)Br)s2)cc1
85 to 90 | CN(C(=O)OC(C)(C)C)c1cc(Oc2ccc(C34CC5CC(CC(C5)C3)C4)cc2)ccc1N
156 | Cn1nc(-n2ncc(C(N)=S)c2N)c(Cl)c1OC(F)F
149 to 150 | CCN(CC)CC(=O)OC1CC2(C)C(C(C)=O)CCC2C2CCC3CC(O)C(Br)CC3(C)C12 (configuration not stated)
178 to 180 | CCOc1ccc(O)c2c1C(=O)N(CSc1nnnn1-c1ccccc1)S2(=O)=O
149 to 151 | CCCCc1nc2c(C)cnc(C(=O)OC)c2n1Cc1ccc(-c2ccccc2-c2nnn[nH]2)cc1
99 to 101 | CC1(C)CCc2ncc([N+](=O)[O-])cc2C1
168 | Cc1cnc2c(c1)CCCC2NC(=S)NC(=O)c1ccccc1 (configuration not stated)
120 to 121 | CCOC(=O)CCCCN1CCc2ccc(NS(=O)(=O)c3ccccc3)cc2C1
208 to 209 | CS(=O)(=O)c1ccc(-n2nc(C(F)(F)F)cc2-c2nc3c(F)cccc3s2)cc1
91 to 92 | O=C1CC(c2ccc(Cl)cc2Cl)Oc2ccccc21 (configuration not stated)
146 to 148 | N#CC(C#N)=Cc1ccc(OCc2ccccc2)cc1
95 | C=CCC(C)(C)C(O)C(c1cccc(Cl)c1)n1ccnc1 (configuration not stated)
228 to 229 | COc1cc(OC)c(-c2cccs2)cc1/C=C/C(=O)c1ccc(S(=O)(=O)Nc2ccc(Cl)cn2)cc1
82 to 84 | CSc1nn(C(C)(C)C)c(=O)c(Cl)c1C1C=CC(C(C)(C)C)CC1 (configuration not stated)
80 | Cc1cccc(C2CCCN2S(=O)(=O)c2ccc(F)cc2)c1 (racemic)

melting point [°C] | Compound
90 | CC(C)(C)COCCOc1ccc(OCC(O)CNCCNC(=O)N2CCOCC2)cc1 (configuration not stated)
158 | CC(C)(C)c1ccc(/C=N/OCCCOc2ccc(C(=O)O)c(NC(=O)c3cc(C(F)(F)F)cc(C(F)(F)F)c3)c2)cc1
184 to 185 | CC(=O)c1ccc(N(C)C)c(S(N)(=O)=O)c1
73 to 75 | CC(C)(N)CNC(CO)(CO)CO
101 to 103 | CCOc1ccc(OCC(F)(F)F)cc1C(=O)O
212 to 213 | CCc1cnc(NC(=O)C2c3ccccc3Oc3ccccc32)o1
192 to 195 | CCOC(=O)[C@H](Cc1ccc(Nc2nccc3ccncc23)cc1)NC1=C(Br)C(=O)C12CCCCC2
241 to 243 | O=C1CC=C2c3ccc(Cl)cc3CCC2N1 (configuration not stated)
189 to 190 | COc1ccc2c(c1)Sc1c(cc(OC)c(OC(C)=O)c1Br)N2C
144 | CC(C)(C)OC(=O)NC[C@H](O)CC(=O)NN
206 to 208 | O=C(NC1c2cc(NC(=O)N3CCCC3)ccc2CCC1O)c1ccc(Cl)c(Cl)c1 (configuration not stated)
92 to 94 | COC(OC)c1cc(-n2c(=O)cc(C(F)(F)F)n(C)c2=O)ccc1Cl
127 to 128 | CC(C)Cn1c(=O)n(C)c(=O)c2c(SCCCC#N)n(Cc3cccc4ccccc34)cc21
42 | CC(=O)N(C#N)Cc1ccccc1
79 to 80 | O=[N+]([O-])c1cc(I)cc(OCc2ccccc2)c1
